Source: US9968084B2, “Synergistic herbicidal composition containing penoxsulam, triclopyr and imazethapyr” (Dow AgroSciences LLC, priority 2011, dated 2018)

Key:
Assay in all cases: Postemergence herbicidal activity of mixtures in the field (rice), visual weed control
Assay type in all cases: in vivo
[1] = system: Echinochloa crus-galli (ECHCG)
Procedure: (§1) Evaluation of Postemergence Herbicidal Activity of Mixtures in the Field
(§2) Field trials were conducted in rice using standard herbicide small plot research methodology. Plot size was 2×6 meter (m) with 4 replicates per treatment. The rice crop was grown using normal cultural practices for fertilization, seeding, watering, flooding and maintenance to ensure good growth of the crop and the weeds.
(§3) All treatments in the field trials were applied using a compressed air backpack sprayer calibrated to apply 187 liters per hectare (L/ha) spray volume. Commercially available products of the premix penoxsulam plus triclopyr (GraspXTRA® herbicide, trademark of Dow AgroSciences LLC) and imazethapyr or imazamox were mixed in water at appropriately formulated product rates to achieve the desired rates based on a unit area of application (hectare) to achieve the desired rates as shown. The GraspXTRA herbicide is a product that contains 0.25 lb penoxulam and 2.06 lb triclopyr triethylamine salt (1.5 lb acid equivalent) per gallon, so the weight ratio of the penoxulam to triclopyr acid equivalent is 1:6. Imazethapyr was used as Newpath 240 SL. imazamox was used as Beyond 120 SL. Treatments were rated at 15 to 63 days after application as compared to the untreated control plants. Visual weed control was scored on a scale of 0 to 100 percent where 0 corresponds to no injury and 100 corresponds to complete kill.
(§4) All treatment results, both for the single premix product, the single entity product and mixtures, are an average of 4 replicates and the tank mix interactions are significant at the […] level.
(§5) Colby's equation was used to determine the herbicidal effects expected from the mixtures (Colby, S. R. Calculation of the synergistic and antagonistic response of herbicide combinations. Weeds 1967, 15, 20-22.).
(§6) The following equation was used to calculate the expected activity of mixtures containing two active ingredients, A and B: Expected=A+B−(A×B/100)
(§7) A=observed efficacy of active ingredient A at the same concentration as used in the mixture.
(§8) B=observed efficacy of active ingredient B at the same concentration as used in the mixture.
(§9) All comparisons are an average of 4 replicates and are significant at the […] level. Rates of penoxsulam, triclopyr and imazethapyr or imazamox are expressed in grams active ingredient/hectare (g ai/ha).

[2] = system: Caperonia palustris ST.-HIL. (CNPPA); conditions: imazamox 44 g ai/ha
Procedure: as §1, §2, §3, §4, §5, §6, §7, §8, §9

[3] = system: Brachiaria platyphylla (GRISEB.) NASH (BRAPP); conditions: imazamox 44 g ai/ha
Procedure: as §1, §2, §3, §4, §5, §6, §7, §8, §9

[4] = system: Setaria spp. (SETSS); conditions: imazethapyr 70 g ai/ha
Procedure: as §1, §2, §3, §4, §5, §6, §7, §8, §9

| Compound | % Control 43 DAA ECHCG Ob ([1]; imazamox 44 g ai/ha, 43 DAA) [%] | % Control 43 DAA CNPPA Ob [2] [%] | % Control 41 DAA BRAPP Ob [3] [%] | % Control 15DAA ECHCG Ob ([1]; imazethapyr 70 g ai/ha, 15 DAA) [%] | % Control 63DAA ECHCG Ob ([1]; imazethapyr 70 g ai/ha, 63 DAA) [%] | % Control 15DAA SETSS Ob ([4]; 15 DAA) [%] | % Control 63DAA SETSS Ob ([4]; 63 DAA) [%] |
| --- | --- | --- | --- | --- | --- | --- | --- |
| COCc1cnc(C2=NC(C)(C(C)C)C(=O)N2)c(C(=O)O)c1 (stereo not shown) [Imazamox, 2-[4,5-dihydro-4-methyl-4-(1-methylethyl)-5-oxo-1H-imidazol-2-yl]-5-(methoxymethyl)-3-pyridinecarboxylic acid] | 78 | 0 | 61 |  |  |  |  |
| CCc1cnc(C2=NC(C)(C(C)C)C(=O)N2)c(C(=O)O)c1 (stereo not shown) [Imazethapyr, 2-[4,5-dihydro-4-methyl-4-(1-methylethyl)-5-oxo-1H-imidazol-2-yl]-5-ethyl-3-pyridinecarboxylic acid] |  |  |  | 69 | 36 | 69 | 36 |
